For one compound, k cat results are on record in ChEMBL document CHEMBL1144862, “A mechanism for substrate-Induced formation of 6-hydroxyflavin mononucleotide catalyzed by C30A trimethylamine dehydrogenase” (Bioorg Med Chem Lett, 2003).

A short description of the data set: Kcat value was determined. The format is ADME.

Compound `Cc1cc2c(nc3c(=O)[nH]c(=O)nc-3n2C[C@@H](O)[C@@H](O)[C@@H](O)COP(=O)(O)O)c(O)c1C` came in with a k cat below 2.
